Experiments:
[1] = biological target: T1, human Cereblon WT GST-tagged protein (Homo sapiens, UniProt Q96SW2); assay: CRBN-binding affinity by HTRF (CEREBLON BINDING kit); settings: HTRF inhibitory activity, CEREBLON BINDING kit; read-out: HTRF IC50
T1 construct: purchased CISBIO 64BDCRBNPEH

WEE1 = biological target: T2, WEE1 (Homo sapiens, UniProt P30291+Q96SW2); assay: Western-blot assay of substrate protein degradation in hPBMCs, WEE1; format: cell-based; settings: 24 hours of compound treatment, compounds tested at 50 nM and 500 nM (concentration of the table not stated)
T2 construct: endogenous in cells; host or cells: hPBMCs (Milecell Biotechnologies)

CK1α = biological target: T3, CK1α (Homo sapiens, UniProt P48729+Q96SW2); assay: Western-blot assay of substrate protein degradation in hPBMCs, CK1α; format: cell-based; settings: 24 hours of compound treatment, compounds tested at 50 nM and 500 nM (concentration of the table not stated)
T3 construct: endogenous in cells; host or cells: hPBMCs (Milecell Biotechnologies)
T3 sequence (P48729 whole entry): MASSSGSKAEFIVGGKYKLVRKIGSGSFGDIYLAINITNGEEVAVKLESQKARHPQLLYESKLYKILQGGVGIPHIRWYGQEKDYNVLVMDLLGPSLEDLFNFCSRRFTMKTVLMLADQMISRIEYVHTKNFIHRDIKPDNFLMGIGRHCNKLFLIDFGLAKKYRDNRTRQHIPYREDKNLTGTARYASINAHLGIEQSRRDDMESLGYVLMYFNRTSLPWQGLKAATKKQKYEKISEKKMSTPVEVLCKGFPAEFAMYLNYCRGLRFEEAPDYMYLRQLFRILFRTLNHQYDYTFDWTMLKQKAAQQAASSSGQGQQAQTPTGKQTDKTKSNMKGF
T3 sequence (Q96SW2 whole entry): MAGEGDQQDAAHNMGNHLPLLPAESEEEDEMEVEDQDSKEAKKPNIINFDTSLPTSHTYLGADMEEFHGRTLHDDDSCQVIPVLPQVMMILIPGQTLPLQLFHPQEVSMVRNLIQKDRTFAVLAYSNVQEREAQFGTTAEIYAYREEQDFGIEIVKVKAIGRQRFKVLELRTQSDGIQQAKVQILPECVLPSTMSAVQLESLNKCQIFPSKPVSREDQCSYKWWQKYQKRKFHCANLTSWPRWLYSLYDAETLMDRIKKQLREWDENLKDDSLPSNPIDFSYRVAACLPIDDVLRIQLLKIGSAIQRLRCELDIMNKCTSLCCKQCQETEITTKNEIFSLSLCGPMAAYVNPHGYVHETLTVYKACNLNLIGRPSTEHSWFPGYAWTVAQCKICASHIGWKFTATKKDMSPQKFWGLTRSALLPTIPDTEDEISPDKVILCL
T3 sequence (Q16531 whole entry partner): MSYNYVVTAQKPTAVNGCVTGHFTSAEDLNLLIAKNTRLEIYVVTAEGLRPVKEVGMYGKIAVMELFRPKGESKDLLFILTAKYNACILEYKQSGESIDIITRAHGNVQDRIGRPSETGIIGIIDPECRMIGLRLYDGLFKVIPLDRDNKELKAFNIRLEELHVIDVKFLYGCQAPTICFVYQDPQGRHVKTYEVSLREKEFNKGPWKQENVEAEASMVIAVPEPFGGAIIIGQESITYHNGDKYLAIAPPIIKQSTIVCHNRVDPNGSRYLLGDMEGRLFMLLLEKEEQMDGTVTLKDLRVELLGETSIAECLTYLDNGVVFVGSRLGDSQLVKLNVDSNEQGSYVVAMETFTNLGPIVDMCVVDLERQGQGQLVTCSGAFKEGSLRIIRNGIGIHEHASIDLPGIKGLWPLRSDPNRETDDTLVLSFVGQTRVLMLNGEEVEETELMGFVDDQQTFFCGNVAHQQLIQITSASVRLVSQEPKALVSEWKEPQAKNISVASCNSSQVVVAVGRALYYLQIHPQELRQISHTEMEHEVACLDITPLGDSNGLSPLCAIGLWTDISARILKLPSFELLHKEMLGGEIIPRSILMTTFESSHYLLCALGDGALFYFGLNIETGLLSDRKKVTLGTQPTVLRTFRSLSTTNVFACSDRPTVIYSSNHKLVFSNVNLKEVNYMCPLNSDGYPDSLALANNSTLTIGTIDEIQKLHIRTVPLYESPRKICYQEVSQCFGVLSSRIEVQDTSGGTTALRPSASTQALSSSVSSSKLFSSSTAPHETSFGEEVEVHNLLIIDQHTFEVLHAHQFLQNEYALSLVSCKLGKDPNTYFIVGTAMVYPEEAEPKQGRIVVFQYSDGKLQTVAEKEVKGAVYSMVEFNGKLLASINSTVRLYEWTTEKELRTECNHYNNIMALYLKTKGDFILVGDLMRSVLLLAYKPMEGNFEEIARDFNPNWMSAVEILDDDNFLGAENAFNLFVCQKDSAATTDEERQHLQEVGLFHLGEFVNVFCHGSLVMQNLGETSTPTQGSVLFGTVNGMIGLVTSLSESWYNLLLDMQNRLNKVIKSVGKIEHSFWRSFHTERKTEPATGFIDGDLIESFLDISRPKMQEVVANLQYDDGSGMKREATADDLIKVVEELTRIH

TMD8 = assay: Tumor cell proliferation inhibition (CellTiter-Meiluncell Luminescent Cell Viability Assay), TMD8; settings: Homo sapiens, TMD8, 96 h, read-out: inhibitory activity (IC50, nM) against tumor cells proliferation, TMD8
Method: The tumor cells used herein were cultured in a cell culture medium listed in table 2 at 37°C in an incubator with 5% CO2. Prior to experimentation, all cell lines used were correctly identified by STR profiling, and tested negative for mycoplasma contamination using a mycoplasma detection kit through routine screenings.
On the following day, the test compounds of the present disclosure were subjected to serial dilution. […] Subsequently, 0.5 µL of the test compound dilution was transferred into the 96-well plate containing the cells, with each well containing 100 µL of cell culture medium. […] Into the 96-well plate, the diluted test compounds and corresponding detection reagents were added, resulting in final test compound concentrations of 500 nM and 10 nM, respectively. The experimental procedure is described below using the diluted 2 µM test compound as an example.
After the cells were treated with the compounds of the present disclosure for a specified period (the treatment durations were shown in Table 3), the cell viability assay reagent was added to the culture medium according to the kit's instructions to determine cell viability. […] All controls were treated using the same procedure as the compounds of the present disclosure. The growth inhibition curves for the compounds of the present disclosure were plotted using Prism GraphPad software, and the IC50 values were calculated therefrom.

IKZF2 = biological target: T4, IKZF2 (Homo sapiens, UniProt Q96SW2+Q9UKS7); assay: Western-blot assay of substrate protein degradation in hPBMCs, IKZF2; format: cell-based; settings: 24 hours of compound treatment, compounds tested at 50 nM and 500 nM (concentration of the table not stated)
T4 construct: endogenous in cells; host or cells: hPBMCs (Milecell Biotechnologies)
T4 sequence (Q9UKS7 whole entry): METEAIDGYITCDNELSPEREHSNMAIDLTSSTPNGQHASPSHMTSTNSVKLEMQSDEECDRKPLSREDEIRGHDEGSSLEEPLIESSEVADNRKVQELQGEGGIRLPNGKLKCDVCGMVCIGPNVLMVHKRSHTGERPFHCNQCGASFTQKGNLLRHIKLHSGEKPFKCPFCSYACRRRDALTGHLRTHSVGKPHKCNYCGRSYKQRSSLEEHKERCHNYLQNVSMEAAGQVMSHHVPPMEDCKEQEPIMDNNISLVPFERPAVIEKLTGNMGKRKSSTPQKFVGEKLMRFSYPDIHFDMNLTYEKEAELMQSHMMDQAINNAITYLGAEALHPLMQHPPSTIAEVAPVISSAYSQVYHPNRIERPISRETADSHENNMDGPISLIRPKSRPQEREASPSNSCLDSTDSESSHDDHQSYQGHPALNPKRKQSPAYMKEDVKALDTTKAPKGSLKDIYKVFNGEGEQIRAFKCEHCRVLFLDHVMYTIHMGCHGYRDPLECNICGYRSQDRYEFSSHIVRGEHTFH
T4 sequence (Q96SW2 whole entry): as the sequence (Q96SW2 whole entry) above
T4 sequence (Q16531 whole entry partner): as the sequence (Q16531 whole entry partner) above

GSPT1 = biological target: T5, GSPT1 (Homo sapiens, UniProt P15170+Q96SW2); assay: Western-blot assay of substrate protein degradation in hPBMCs, GSPT1; format: cell-based; settings: 24 hours of compound treatment, compounds tested at 50 nM and 500 nM (concentration of the table not stated)
T5 construct: endogenous in cells; host or cells: hPBMCs (Milecell Biotechnologies)
T5 sequence (P15170 whole entry): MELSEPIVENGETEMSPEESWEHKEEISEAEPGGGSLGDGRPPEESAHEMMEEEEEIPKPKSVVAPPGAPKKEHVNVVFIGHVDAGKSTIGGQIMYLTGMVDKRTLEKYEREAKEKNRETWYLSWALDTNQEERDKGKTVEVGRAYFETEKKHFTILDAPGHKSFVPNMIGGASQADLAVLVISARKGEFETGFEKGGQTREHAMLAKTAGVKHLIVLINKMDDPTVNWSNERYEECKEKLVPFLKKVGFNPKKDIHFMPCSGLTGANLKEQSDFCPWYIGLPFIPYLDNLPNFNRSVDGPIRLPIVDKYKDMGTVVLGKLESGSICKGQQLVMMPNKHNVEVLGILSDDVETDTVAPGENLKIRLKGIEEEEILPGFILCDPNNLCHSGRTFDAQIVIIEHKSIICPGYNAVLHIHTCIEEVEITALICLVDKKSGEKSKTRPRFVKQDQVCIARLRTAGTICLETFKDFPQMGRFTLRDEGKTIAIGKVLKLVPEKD
T5 sequence (Q96SW2 whole entry): as the sequence (Q96SW2 whole entry) above
T5 sequence (Q16531 whole entry partner): as the sequence (Q16531 whole entry partner) above

NCI-H1975 = assay: Tumor cell proliferation inhibition (CellTiter-Meiluncell Luminescent Cell Viability Assay), NCI-H1975; settings: Homo sapiens, NCI-H1975, 96 h, read-out: inhibitory activity (IC50, nM) against tumor cells proliferation, H1975
[2] = test system: Human acute T lymphocytic leukemia cells (Molt-4); assay: Tumor cell proliferation inhibition (CellTiter-Meiluncell Luminescent Cell Viability Assay), Molt-4; settings: MOLT-4, 96 h, read-out: inhibitory activity (IC50, nM) against tumor cells proliferation, Molt 4
[3] = test system: Human breast cancer cells (MDA-MB-231); assay: Tumor cell proliferation inhibition (CellTiter-Meiluncell Luminescent Cell Viability Assay), MDA-MB-231; settings: MDA-MB-231, 96 h, read-out: inhibitory activity (IC50, nM) against tumor cells proliferation, MDA-MB-231
IKZF1 = biological target: T6, IKZF1 (Homo sapiens, UniProt Q13422+Q96SW2); assay: Western-blot assay of substrate protein degradation in hPBMCs, IKZF1; format: cell-based; settings: 24 hours of compound treatment, compounds tested at 50 nM and 500 nM (concentration of the table not stated)
T6 construct: endogenous in cells; host or cells: hPBMCs (Milecell Biotechnologies)
T6 sequence (Q13422 whole entry): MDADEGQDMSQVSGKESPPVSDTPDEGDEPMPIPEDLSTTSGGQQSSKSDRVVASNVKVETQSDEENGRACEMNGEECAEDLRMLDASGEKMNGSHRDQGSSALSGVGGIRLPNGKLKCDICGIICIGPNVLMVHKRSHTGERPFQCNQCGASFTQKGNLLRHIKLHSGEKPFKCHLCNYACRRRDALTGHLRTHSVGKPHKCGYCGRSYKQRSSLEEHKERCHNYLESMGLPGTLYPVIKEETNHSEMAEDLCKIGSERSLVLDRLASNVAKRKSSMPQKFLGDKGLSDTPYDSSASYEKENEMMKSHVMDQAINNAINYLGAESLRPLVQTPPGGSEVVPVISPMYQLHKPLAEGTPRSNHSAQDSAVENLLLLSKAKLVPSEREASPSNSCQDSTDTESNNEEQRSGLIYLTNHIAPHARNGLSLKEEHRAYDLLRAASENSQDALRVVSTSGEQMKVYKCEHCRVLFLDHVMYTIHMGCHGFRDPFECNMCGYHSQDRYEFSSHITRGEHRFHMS
T6 sequence (Q96SW2 whole entry): as the sequence (Q96SW2 whole entry) above
T6 sequence (Q16531 whole entry partner): as the sequence (Q16531 whole entry partner) above

IKZF3 = biological target: T7, IKZF3 (Homo sapiens, UniProt Q96SW2+Q9UKT9); assay: Western-blot assay of substrate protein degradation in hPBMCs, IKZF3; format: cell-based; settings: 24 hours of compound treatment, compounds tested at 50 nM and 500 nM (concentration of the table not stated)
T7 construct: endogenous in cells; host or cells: hPBMCs (Milecell Biotechnologies)
T7 sequence (Q9UKT9 whole entry): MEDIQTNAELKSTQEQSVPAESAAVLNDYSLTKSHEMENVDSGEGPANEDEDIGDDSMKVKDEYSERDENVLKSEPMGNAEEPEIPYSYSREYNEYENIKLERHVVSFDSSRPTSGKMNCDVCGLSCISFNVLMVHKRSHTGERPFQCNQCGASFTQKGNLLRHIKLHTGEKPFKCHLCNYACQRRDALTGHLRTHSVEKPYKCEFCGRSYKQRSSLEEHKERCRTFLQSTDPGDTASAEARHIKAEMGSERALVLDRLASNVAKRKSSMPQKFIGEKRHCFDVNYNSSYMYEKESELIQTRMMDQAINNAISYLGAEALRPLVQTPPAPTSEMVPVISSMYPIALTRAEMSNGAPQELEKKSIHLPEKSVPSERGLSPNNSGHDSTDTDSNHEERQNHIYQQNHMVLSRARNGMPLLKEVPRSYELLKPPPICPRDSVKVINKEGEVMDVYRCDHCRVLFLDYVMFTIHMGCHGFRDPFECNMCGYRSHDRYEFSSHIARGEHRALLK
T7 sequence (Q96SW2 whole entry): as the sequence (Q96SW2 whole entry) above
T7 sequence (Q16531 whole entry partner): as the sequence (Q16531 whole entry partner) above

T1 sequence (Q96SW2 whole entry): as the sequence (Q96SW2 whole entry) above

SMILES | IC50 [1] [nM] | Weel substrate protein remaining % (WEE1) | CK1a substrate protein remaining % (CK1α) | IC50 (TMD8) [nM] | IKZF2 substrate protein remaining % (IKZF2) | GSPT1 substrate protein remaining % (GSPT1) | IC50 (NCI-H1975) [nM] | IC50 [2] [nM] | IC50 [3] [nM] | IKZF 1 substrate protein remaining % (IKZF1) | IKZF3 substrate protein remaining % (IKZF3)
O=C1CCC(N2Cc3cc(CN4CC=C(c5cncc(Cl)c5)CC4)ccc3C2=O)C(=O)N1 (centres unmarked) [GT-04620, 3-(5-((5-chloro-3',6'-dihydro-[3,4'-bipyridin]-1'(2'H)-yl)methyl)-1-oxoisoindolin-2-yl)piperidine-2,6-dione] | 500 to 1000 | A (0% ≤ substrate protein remaining % ≤ 80%) | B (80%< substrate protein remaining %≤ 100%) | 10 to 50 | A (0% ≤ substrate protein remaining % ≤ 80%) | A (0% ≤ substrate protein remaining % ≤ 80%) | 10 to 50 | 1 to 5 | 10 to 50 | A (0% ≤ substrate protein remaining % ≤ 80%) | A (0% ≤ substrate protein remaining % ≤ 80%)
O=C1CCC(N2Cc3cc(CN4CCC(N5CCc6cc(F)ccc65)CC4)ccc3C2=O)C(=O)N1 (centres unmarked) [GT-04650, 3-(5-((4-(5-fluoroindolin-1-yl)piperidin-1-yl)methyl)-1-oxoisoindolin-2-yl)piperidine-2,6-dione] | < 500 | A (0% ≤ substrate protein remaining % ≤ 80%) | B (80%< substrate protein remaining %≤ 100%) | 100 to 500 | A (0% ≤ substrate protein remaining % ≤ 80%) | A (0% ≤ substrate protein remaining % ≤ 80%) | 50 to 100 | 10 to 50 | 50 to 100 | A (0% ≤ substrate protein remaining % ≤ 80%) | A (0% ≤ substrate protein remaining % ≤ 80%)
O=C1CCC(N2Cc3cc(CN4CC=C(c5cccc6cnccc56)CC4)ccc3C2=O)C(=O)N1 (centres unmarked) [GT-04666, 3-(5-((4-(isoquinolin-5-yl)-3,6-dihydropyridin-1(2H)-yl)methyl)-1-oxoisoindolin-2-yl)piperidine-2,6-dione] | < 500 | A (0% ≤ substrate protein remaining % ≤ 80%) | A (0% ≤ substrate protein remaining % ≤ 80%) | 10 to 50 | A (0% ≤ substrate protein remaining % ≤ 80%) | A (0% ≤ substrate protein remaining % ≤ 80%) | 10 to 50 | 1 to 5 | 5 to 10 | A (0% ≤ substrate protein remaining % ≤ 80%) | A (0% ≤ substrate protein remaining % ≤ 80%)
O=C1CCC(N2Cc3cc(CN4CC=C(c5ncccc5F)CC4)ccc3C2=O)C(=O)N1 (centres unmarked) [GT-04689, 3-(5-((3-fluoro-3',6'-dihydro-[2,4'-bipyridin]-1'(2'H)-yl)methyl)-1-oxoisoindolin-2-yl)piperidine-2,6-dione] | < 500 | A (0% ≤ substrate protein remaining % ≤ 80%) | A (0% ≤ substrate protein remaining % ≤ 80%) | 50 to 100 | A (0% ≤ substrate protein remaining % ≤ 80%) | A (0% ≤ substrate protein remaining % ≤ 80%) | 50 to 100 | 5 to 10 | 10 to 50 | A (0% ≤ substrate protein remaining % ≤ 80%) | A (0% ≤ substrate protein remaining % ≤ 80%)
O=C1CCC(N2Cc3cc(CN4CCC(c5nccc(Cl)c5Cl)CC4)ccc3C2=O)C(=O)N1 (centres unmarked) [GT-04690, 3-(5-((4-(3,4-dichloropyridin-2-yl)piperidin-1-yl)methyl)-1-oxoisoindolin-2-yl)piperidine-2,6-dione] | 500 to 1000 | A (0% ≤ substrate protein remaining % ≤ 80%) | A (0% ≤ substrate protein remaining % ≤ 80%) | 500 to 1000 | A (0% ≤ substrate protein remaining % ≤ 80%) | A (0% ≤ substrate protein remaining % ≤ 80%) | 100 to 500 | 5 to 10 | 50 to 100 | A (0% ≤ substrate protein remaining % ≤ 80%) | A (0% ≤ substrate protein remaining % ≤ 80%)
O=C1CCC(N2Cc3cc(CN4CC=C(c5ncnc6sccc56)CC4)ccc3C2=O)C(=O)N1 (centres unmarked) [GT-04692, 3-(1-oxo-5-((4-(thieno[2,3-d]pyrimidin-4-yl)-3,6-dihydropyridin-1(2H)-yl)methyl)isoindolin-2-yl)piperidine-2,6-dione] | < 500 | A (0% ≤ substrate protein remaining % ≤ 80%) | A (0% ≤ substrate protein remaining % ≤ 80%) | 10 to 50 | A (0% ≤ substrate protein remaining % ≤ 80%) | A (0% ≤ substrate protein remaining % ≤ 80%) | 50 to 100 | 1 to 5 | 10 to 50 | A (0% ≤ substrate protein remaining % ≤ 80%) | A (0% ≤ substrate protein remaining % ≤ 80%)
O=C1CCC(N2Cc3cc(CN4CC(=C5CCOc6cc(F)ccc65)C4)ccc3C2=O)C(=O)N1 (centres unmarked) [GT-04701, 3-(5-((3-(7-fluorochroman-4-ylidene)azetidin-1-yl)methyl)-1-oxoisoindolin-2-yl)piperidine-2,6-dione] | < 500 | A (0% ≤ substrate protein remaining % ≤ 80%) | A (0% ≤ substrate protein remaining % ≤ 80%) | 50 to 100 | A (0% ≤ substrate protein remaining % ≤ 80%) | A (0% ≤ substrate protein remaining % ≤ 80%) | 50 to 100 | 1 to 5 | 10 to 50 | A (0% ≤ substrate protein remaining % ≤ 80%) | A (0% ≤ substrate protein remaining % ≤ 80%)
Cc1cc2c(C3=CCN(Cc4ccc5c(c4)CN(C4CCC(=O)NC4=O)C5=O)CC3)ncnc2s1 (centres unmarked) [GT-04704, 3-(5-((4-(6-methylthieno[2,3-d]pyrimidin-4-yl)-3,6-dihydropyridin-1(2H)-yl)methyl)-1-oxoisoindolin-2-yl)piperidine-2,6-dione] | < 500 | A (0% ≤ substrate protein remaining % ≤ 80%) | A (0% ≤ substrate protein remaining % ≤ 80%) | 10 to 50 | A (0% ≤ substrate protein remaining % ≤ 80%) | A (0% ≤ substrate protein remaining % ≤ 80%) | 10 to 50 | 1 to 5 | 10 to 50 | A (0% ≤ substrate protein remaining % ≤ 80%) | A (0% ≤ substrate protein remaining % ≤ 80%)
O=C1CCC(N2Cc3cc(CN4CC=C(c5ncc6ccsc6n5)CC4)ccc3C2=O)C(=O)N1 (centres unmarked) [GT-04708, 3-(1-oxo-5-((4-(thieno[2,3-d]pyrimidin-2-yl)-3,6-dihydropyridin-1(2H)-yl)methyl)isoindolin-2-yl)piperidine-2,6-dione] | 500 to 1000 | A (0% ≤ substrate protein remaining % ≤ 80%) | A (0% ≤ substrate protein remaining % ≤ 80%) | 10 to 50 | B (80%< substrate protein remaining %≤ 100%) | A (0% ≤ substrate protein remaining % ≤ 80%) | 10 to 50 | 1 to 5 | 5 to 10 | B (80%< substrate protein remaining %≤ 100%) | B (80%< substrate protein remaining %≤ 100%)
O=C1CCC(N2Cc3cc(CN4CCC(c5c[nH]c6cc(F)ccc56)CC4)ccc3C2=O)C(=O)N1 (centres unmarked) [GT-04713, 3-(5-((4-(6-fluoro-1H-indol-3-yl)piperidin-1-yl)methyl)-1-oxoisoindolin-2-yl)piperidine-2,6-dione] | 500 to 1000 | A (0% ≤ substrate protein remaining % ≤ 80%) | A (0% ≤ substrate protein remaining % ≤ 80%) | 10 to 50 | A (0% ≤ substrate protein remaining % ≤ 80%) | A (0% ≤ substrate protein remaining % ≤ 80%) | 5 to 10 | 1 to 5 | 1 to 5 | A (0% ≤ substrate protein remaining % ≤ 80%) | A (0% ≤ substrate protein remaining % ≤ 80%)

— EP4745137A1 (Gluetacs Therapeutics (Shanghai) Co., Ltd., priority 2023, dated 2025)
